Experimental data reported in patent US10294212B2 (CURADEV PHARMA PRIVATE LTD., priority 2013, dated 2019).

target: Human indoleamine 2,3-dioxygenase1 (hIDO1) (Homo sapiens (Human), UniProt P14902); experiment: In-vitro IDO1 enzyme assay (conversion of L-tryptophan to KYN); format: biochemical; conditions: read-out: IC50 (IDO1) Enz
Summary of the method: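 His-tagged hIDO1 (10 nM, E. coli-expressed) incubated with 30 μM L-tryptophan, 20 mM ascorbate, 10 μM methylene blue and 100 μg/mL catalase in 50 mM potassium phosphate pH 6.5, 30 min at 37 °C. TCA stop, then 65 °C hydrolysis; KYN measured by HPLC-UV at 360 nm or LC/MS/MS. IC50 by nonlinear regression versus 1% DMSO control.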

Chain of Human indoleamine 2,3-dioxygenase1 (hIDO1) (P14902 whole entry): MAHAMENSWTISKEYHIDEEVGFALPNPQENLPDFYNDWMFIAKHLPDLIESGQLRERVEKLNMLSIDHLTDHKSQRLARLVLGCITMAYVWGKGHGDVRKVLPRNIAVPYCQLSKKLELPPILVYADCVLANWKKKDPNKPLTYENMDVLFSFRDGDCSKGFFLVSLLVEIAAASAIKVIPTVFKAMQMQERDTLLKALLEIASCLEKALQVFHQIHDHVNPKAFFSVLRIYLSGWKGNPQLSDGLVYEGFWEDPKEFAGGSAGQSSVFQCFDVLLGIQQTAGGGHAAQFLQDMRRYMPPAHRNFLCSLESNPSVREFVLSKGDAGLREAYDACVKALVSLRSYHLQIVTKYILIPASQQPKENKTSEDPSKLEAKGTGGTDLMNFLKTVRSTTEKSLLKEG

SMILES | IC50 [nM]
Nc1oc2cnccc2c1Nc1cc(Cl)c(F)c(Cl)c1 [Compound 47, N^3-(3,5-Dichloro-4-fluorophenyl)furo[2,3-c]pyridine-2,3-diamine] | > 1000
Nc1oc2cnccc2c1Nc1cc(Cl)c(F)cc1F [Compound 51, N^3-(5-Chloro-2,4-difluorophenyl)furo[2,3-c]pyridine-2,3-diamine] | > 1000
Nc1oc2cnccc2c1Nc1cc(Cl)ccc1Cl [Compound 55, N^3-(2,5-Dichlorophenyl)furo[2,3-c]pyridine-2,3-diamine] | > 1000
Nc1oc2cnccc2c1Nc1ccc(F)c(Br)c1 [Compound 58, N^3-(3-Bromo-4-fluorophenyl)furo[2,3-c]pyridine-2,3-diamine] | < 200
Nc1oc2cnccc2c1Nc1ccc(F)c(C(F)(F)F)c1 [Compound 60, N^3-(4-Fluoro-3-(trifluoromethyl)phenyl)furo[2,3-c]pyridine-2,3-diamine] | < 200
Nc1oc2cnccc2c1Nc1ccc(F)c(OC(F)(F)F)c1 [Compound 62, N^3-(4-Fluoro-3-(trifluoromethoxy)phenyl)furo[2,3-c]pyridine-2,3-diamine] | 200 to 1000
COc1cc2c(Nc3ccc(F)c(Cl)c3)c(N)oc2cn1 [Compound 64, N^3-(3-Chloro-4-fluoro-phenyl)-5-methoxy-furo[2,3-c]pyridine-2,3-diamine] | < 200
Nc1oc2cnccc2c1Nc1cccc(C(F)F)c1 [Compound 65, N^3-(3-(Difluoromethyl)phenyl)furo[2,3-c]pyridine-2,3-diamine] | < 200
Cc1nccc2c(Nc3ccc(F)c(Cl)c3)c(N)oc12 [Compound 66, N^3-(3-Chloro-4-fluoro-phenyl)-7-methyl-furo[2,3-c]pyridine-2,3-diamine] | < 200
COc1cncc2oc(N)c(Nc3ccc(F)c(Cl)c3)c12 [Compound 67, N^3-(3-Chloro-4-fluoro-phenyl)-4-methoxy-furo[2,3-c]pyridine-2,3-diamine] | > 1000
C#Cc1cccc(Nc2c(N)oc3cnccc23)c1 [Compound 68, N^3-(3-Ethynylphenyl)furo[2,3-c]pyridine-2,3-diamine] | 200 to 1000
CC(F)(F)c1cc(Nc2c(N)oc3cnccc23)ccc1F [Compound 69, N^3-(3-(1,1-Difluoroethyl)-4-fluorophenyl)furo[2,3-c]pyridine-2,3-diamine] | 200 to 1000
Cc1cc(Nc2c(N)oc3cnccc23)ccc1Cl [Compound 70, N^3-(4-Chloro-3-methylphenyl)furo[2,3-c]pyridine-2,3-diamine] | 200 to 1000
Nc1oc2cnccc2c1Nc1ccc2c(c1)CCCC2 [Compound 71, N^3-(5,6,7,8-Tetrahydronaphthalen-2-yl)furo[2,3-c]pyridine-2,3-diamine] | > 1000
Cc1ncc(C)c2c(Nc3ccc(F)c(Cl)c3)c(N)oc12 [Compound 72, N^3-(3-chloro-4-fluorophenyl)-4,7-dimethylfuro[2,3-c]pyridine-2,3-diamine] | 200 to 1000
CCc1nccc2c(Nc3ccc(F)c(Cl)c3)c(N)oc12 [Compound 73, N^3-(3-Chloro-4-fluoro-phenyl)-7-ethyl-furo[2,3-c]pyridine-2,3-diamine] | < 200
CCc1nccc2c(Nc3ccc(F)c(C(F)(F)F)c3)c(N)oc12 [Compound 74, 7-Ethyl-N^3-(4-fluoro-3-(trifluoromethyl)phenyl)furo[2,3-c]pyridine-2,3-diamine] | < 200

target: IDO1 in HeLa cells (Homo sapiens (Human), UniProt P14902); experiment: HeLa cell based IDO1 assay (IFNγ-induced, KYN in supernatant); conditions: not given
Sequence (P14902 whole entry): as above
Description: HeLa cells were obtained from ATCC and maintained in DMEM supplemented with sodium bicarbonate (2.1 g/L), HEPES (4.1 g/L), L-glutamine (2 mM), non-essential amino acid (84 mg/L) and fetal bovine serum (10% FBS) and maintained at 95% humidity and 5% CO2 in a 37° C. incubator. Unless otherwise stated, all materials were procured from Sigma. Upon incubation with gamma-interferon (IFNγ ), HeLa cells express IDO1, which catalyzes the formation of N-formyl kynurenine from tryptophan present in growth medium. The assay was performed as follows:
Cells were plated in medium (300 μL) at a density of 0.1 million per well of a 48 well plate and hIDO1 was induced by overnight treatment with IFNγ (50 ng/mL) (Peprotech, USA). The following day, cells were washed to remove IFNγ and were incubated with specific concentrations of test compounds (typically 10 μM to 1 nM, final volume 300 μL) in Hanks Balanced Salt Solution (HBSS) containing 80 μM L-tryptophan. Following incubation, supernatant (150 μL) was transferred to a 96 well plate into which 30%TCA (304) was added and the contents further incubated at 65° C. for 15 min to fully convert N-formylkynurenine to kynurenine. The reaction mixture was then centrifuged to remove sediments and the KYN in the supernatant was estimated by UV-visible absorption spectroscopy at 360 nm using a Waters HPLC system fitted with a C-18 column. (Xiangdong Liu et al. Blood 2010, Vol-117, 3520-30; Sono described above).
Percent inhibition at each concentration of test compounds was determined by estimating the decrease in KYN with reference to the reaction control with 1% DMSO vehicle. Data were analyzed using nonlinear regression to generate IC50 values using Graph Pad Prism® 5.

SMILES | IC50 [nM]
Nc1oc2cnccc2c1Nc1cc(Cl)c(F)c(Cl)c1 [Compound 47, N^3-(3,5-Dichloro-4-fluorophenyl)furo[2,3-c]pyridine-2,3-diamine] | 200 to 1000
Nc1oc2cnccc2c1Nc1cc(Cl)c(F)cc1F [Compound 51, N^3-(5-Chloro-2,4-difluorophenyl)furo[2,3-c]pyridine-2,3-diamine] | < 200
Nc1oc2cnccc2c1Nc1cc(Cl)ccc1Cl [Compound 55, N^3-(2,5-Dichlorophenyl)furo[2,3-c]pyridine-2,3-diamine] | < 200
Nc1oc2cnccc2c1Nc1ccc(F)c(Br)c1 [Compound 58, N^3-(3-Bromo-4-fluorophenyl)furo[2,3-c]pyridine-2,3-diamine] | < 200
Nc1oc2cnccc2c1Nc1ccc(F)c(C(F)(F)F)c1 [Compound 60, N^3-(4-Fluoro-3-(trifluoromethyl)phenyl)furo[2,3-c]pyridine-2,3-diamine] | < 200
Nc1oc2cnccc2c1Nc1ccc(F)c(OC(F)(F)F)c1 [Compound 62, N^3-(4-Fluoro-3-(trifluoromethoxy)phenyl)furo[2,3-c]pyridine-2,3-diamine] | < 200
COc1cc2c(Nc3ccc(F)c(Cl)c3)c(N)oc2cn1 [Compound 64, N^3-(3-Chloro-4-fluoro-phenyl)-5-methoxy-furo[2,3-c]pyridine-2,3-diamine] | < 200
Nc1oc2cnccc2c1Nc1cccc(C(F)F)c1 [Compound 65, N^3-(3-(Difluoromethyl)phenyl)furo[2,3-c]pyridine-2,3-diamine] | < 200
Cc1nccc2c(Nc3ccc(F)c(Cl)c3)c(N)oc12 [Compound 66, N^3-(3-Chloro-4-fluoro-phenyl)-7-methyl-furo[2,3-c]pyridine-2,3-diamine] | < 200
COc1cncc2oc(N)c(Nc3ccc(F)c(Cl)c3)c12 [Compound 67, N^3-(3-Chloro-4-fluoro-phenyl)-4-methoxy-furo[2,3-c]pyridine-2,3-diamine] | < 200
C#Cc1cccc(Nc2c(N)oc3cnccc23)c1 [Compound 68, N^3-(3-Ethynylphenyl)furo[2,3-c]pyridine-2,3-diamine] | < 200
CC(F)(F)c1cc(Nc2c(N)oc3cnccc23)ccc1F [Compound 69, N^3-(3-(1,1-Difluoroethyl)-4-fluorophenyl)furo[2,3-c]pyridine-2,3-diamine] | < 200
Cc1cc(Nc2c(N)oc3cnccc23)ccc1Cl [Compound 70, N^3-(4-Chloro-3-methylphenyl)furo[2,3-c]pyridine-2,3-diamine] | < 200
Nc1oc2cnccc2c1Nc1ccc2c(c1)CCCC2 [Compound 71, N^3-(5,6,7,8-Tetrahydronaphthalen-2-yl)furo[2,3-c]pyridine-2,3-diamine] | < 200
Cc1ncc(C)c2c(Nc3ccc(F)c(Cl)c3)c(N)oc12 [Compound 72, N^3-(3-chloro-4-fluorophenyl)-4,7-dimethylfuro[2,3-c]pyridine-2,3-diamine] | 200 to 1000
CCc1nccc2c(Nc3ccc(F)c(Cl)c3)c(N)oc12 [Compound 73, N^3-(3-Chloro-4-fluoro-phenyl)-7-ethyl-furo[2,3-c]pyridine-2,3-diamine] | < 200
CCc1nccc2c(Nc3ccc(F)c(C(F)(F)F)c3)c(N)oc12 [Compound 74, 7-Ethyl-N^3-(4-fluoro-3-(trifluoromethyl)phenyl)furo[2,3-c]pyridine-2,3-diamine] | < 200

target: Human TDO (hTDO)-transfected CHO-K1 cells (Homo sapiens (Human), UniProt P48775); experiment: CHO-K1 cell based TDO assay; conditions: hTDO cellular assay
Sequence (P48775 whole entry): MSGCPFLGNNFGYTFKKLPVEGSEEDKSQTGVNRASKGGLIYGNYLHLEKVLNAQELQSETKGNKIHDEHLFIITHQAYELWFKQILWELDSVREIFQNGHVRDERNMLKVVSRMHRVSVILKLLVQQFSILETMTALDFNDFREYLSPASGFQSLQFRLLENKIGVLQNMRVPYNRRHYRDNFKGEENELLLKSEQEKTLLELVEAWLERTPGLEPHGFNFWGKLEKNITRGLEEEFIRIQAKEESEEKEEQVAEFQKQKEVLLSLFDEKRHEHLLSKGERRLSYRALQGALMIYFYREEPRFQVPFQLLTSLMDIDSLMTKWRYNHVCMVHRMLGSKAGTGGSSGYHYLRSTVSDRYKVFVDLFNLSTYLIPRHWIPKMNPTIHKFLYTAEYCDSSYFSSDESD
Summary of the method: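 Stably hTDO-expressing CHO-K1 cells were exposed to compounds (typically 31 μM to 10 nM) in HBSS with 80 μM L-tryptophan for 2 h. TCA-treated supernatant was heated at 65° C for 15 min to convert N-formylkynurenine, then kynurenine was quantified by LC/MS/MS. IC50 came from percent inhibition versus DMSO control.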

SMILES | IC50 [nM]
Nc1oc2cnccc2c1Nc1cc(Cl)c(F)c(Cl)c1 [Compound 47, N^3-(3,5-Dichloro-4-fluorophenyl)furo[2,3-c]pyridine-2,3-diamine] | 500 to 2000
Nc1oc2cnccc2c1Nc1cc(Cl)c(F)cc1F [Compound 51, N^3-(5-Chloro-2,4-difluorophenyl)furo[2,3-c]pyridine-2,3-diamine] | > 2000
Nc1oc2cnccc2c1Nc1cc(Cl)ccc1Cl [Compound 55, N^3-(2,5-Dichlorophenyl)furo[2,3-c]pyridine-2,3-diamine] | > 2000
Nc1oc2cnccc2c1Nc1ccc(F)c(Br)c1 [Compound 58, N^3-(3-Bromo-4-fluorophenyl)furo[2,3-c]pyridine-2,3-diamine] | < 500
Nc1oc2cnccc2c1Nc1ccc(F)c(C(F)(F)F)c1 [Compound 60, N^3-(4-Fluoro-3-(trifluoromethyl)phenyl)furo[2,3-c]pyridine-2,3-diamine] | 500 to 2000
Nc1oc2cnccc2c1Nc1ccc(F)c(OC(F)(F)F)c1 [Compound 62, N^3-(4-Fluoro-3-(trifluoromethoxy)phenyl)furo[2,3-c]pyridine-2,3-diamine] | > 2000
COc1cc2c(Nc3ccc(F)c(Cl)c3)c(N)oc2cn1 [Compound 64, N^3-(3-Chloro-4-fluoro-phenyl)-5-methoxy-furo[2,3-c]pyridine-2,3-diamine] | 500 to 2000
Nc1oc2cnccc2c1Nc1cccc(C(F)F)c1 [Compound 65, N^3-(3-(Difluoromethyl)phenyl)furo[2,3-c]pyridine-2,3-diamine] | 500 to 2000
Cc1nccc2c(Nc3ccc(F)c(Cl)c3)c(N)oc12 [Compound 66, N^3-(3-Chloro-4-fluoro-phenyl)-7-methyl-furo[2,3-c]pyridine-2,3-diamine] | < 500
COc1cncc2oc(N)c(Nc3ccc(F)c(Cl)c3)c12 [Compound 67, N^3-(3-Chloro-4-fluoro-phenyl)-4-methoxy-furo[2,3-c]pyridine-2,3-diamine] | 500 to 2000
C#Cc1cccc(Nc2c(N)oc3cnccc23)c1 [Compound 68, N^3-(3-Ethynylphenyl)furo[2,3-c]pyridine-2,3-diamine] | 500 to 2000
CC(F)(F)c1cc(Nc2c(N)oc3cnccc23)ccc1F [Compound 69, N^3-(3-(1,1-Difluoroethyl)-4-fluorophenyl)furo[2,3-c]pyridine-2,3-diamine] | > 2000
Cc1cc(Nc2c(N)oc3cnccc23)ccc1Cl [Compound 70, N^3-(4-Chloro-3-methylphenyl)furo[2,3-c]pyridine-2,3-diamine] | 500 to 2000
Nc1oc2cnccc2c1Nc1ccc2c(c1)CCCC2 [Compound 71, N^3-(5,6,7,8-Tetrahydronaphthalen-2-yl)furo[2,3-c]pyridine-2,3-diamine] | > 2000
Cc1ncc(C)c2c(Nc3ccc(F)c(Cl)c3)c(N)oc12 [Compound 72, N^3-(3-chloro-4-fluorophenyl)-4,7-dimethylfuro[2,3-c]pyridine-2,3-diamine] | 500 to 2000
CCc1nccc2c(Nc3ccc(F)c(Cl)c3)c(N)oc12 [Compound 73, N^3-(3-Chloro-4-fluoro-phenyl)-7-ethyl-furo[2,3-c]pyridine-2,3-diamine] | < 500
CCc1nccc2c(Nc3ccc(F)c(C(F)(F)F)c3)c(N)oc12 [Compound 74, 7-Ethyl-N^3-(4-fluoro-3-(trifluoromethyl)phenyl)furo[2,3-c]pyridine-2,3-diamine] | > 2000
